According to patent US8658648B2, “Modified chloroquines with single ring moiety or fused ring moiety” (DesignMedix, Inc., priority 2008, dated 2014):
pIC50: −log10 of the molar value. Where two headings read alike, the source gives them in different places.

Columns and labels:
[1] = system: D6 (CQ^S) P. falciparum strain; assay: In vitro fluorescence (Sybr Green I) assay for IC50 against D6 strain; assay type: cell-based; conditions: Plasmodium falciparum, read-out: IC50-D6
Text: (§1) This method employs fluorescent detection of the level of parasitemia in cultured red blood cells and can be automated for high-throughput screening of antimalarial RCQs. This exemplary method allows the inhibitory agent (such as a MCQ) to be in contact with the parasite for an entire developmental cycle without purine starvation, which is in contrast to the traditional ^3H-hypoxanthine method (Desjardins et al. 1979. Antimicrob. Agents Chemother. 16(6):710-718, which is incorporated herein by reference in its entirety). Briefly, to perform the Smilkstein et al. method, an initial parasitemia of approximately 0.2% is attained by adding uninfected red blood cells (RBCs) to a stock culture of Plasmodium-infected RBCs. […] After a period of incubation (such as about 72 hours), a sufficient amount (e.g., 100 μL) of a fluorescent DNA binding dye-detergent mixture (e.g., Sybr Green I dye-detergent mixture) to lyse cells and bind to DNA is added to the reactions. Because uninfected RBCs have no DNA, only parasite DNA (in infected RBCs) is available for binding to the fluorescent dye (e.g., Sybr Green I). Samples are then incubated in the dark for a period of time (e.g., one hour), followed by measurement of levels of fluorescence. For Sybr Green 1, excitation and emission wavelength are 485 and 530 nm, respectively. Fluorescence readings, which represent the amount of parasite DNA in the sample, can be plotted against the Log [drug] and fit to a curve by nonlinear regression to obtain the IC50 value for the tested compound.
(§2) An in vitro fluorescence assay for determining IC50 of antimalarial drugs was performed as previously described by Smilkstein et al. (2004. Antimicrob. Agents Chemother. 48(5):1803-1806). This procedure can be automated for high-throughput screening of the antimalarial activities of RCQs described herein. This method also allows the tested agent (e.g., a MCQ) to be in contact with the parasite for an entire developmental cycle without purine starvation (which occurs with the commonly used ^3H-hypoxanthine method; see, e.g., Desjardins et al. 1979. Antimicrob. Agents Chemother. 16, (6):710-7188).
(§3) Briefly, an initial parasitemia of approximately 0.2% was attained by addition of uninfected red blood cells to a stock culture of cells infected with Dd2 (CQ^R), 7G8 (CQ^R), or D6 (CQ^S) P. falciparum strains. A 10 mM solution of a test compound (in DMSO) was prepared. The test compound (at a final concentration from 10^−11 to 10^−4 M) and infected red blood cells (at a final concentration of 2% (v/v)) were mixed in 100 μL samples in individual wells of a 96-well plate. Each sample was prepared in triplicate. A triplicate set of reactions containing CQ (instead of the test compound) was included as a control. After a 72 hour incubation period, Sybr Green I dye-detergent mixture (100 μL) was added to each reaction. The samples were further incubated for an hour in the dark, and then placed in a 96-well fluorescence plate reader (Gemini-EM, […]) and analyzed with excitation and emission wavelength bands at 485 and 530 nm, respectively. Fluorescence readings were plotted against the Log [drug], and curve fitting performed by nonlinear regression to find the IC50 value.

[2] = system: Dd2 (CQ^R) P. falciparum strain; assay: In vitro fluorescence (Sybr Green I) assay for IC50 against Dd2 strain; assay type: cell-based; conditions: Plasmodium falciparum, read-out: IC50-Dd2
Text: as §1, §2, §3

[3] = system: 7G8 (CQ^R) P. falciparum strain; assay: In vitro fluorescence (Sybr Green I) assay for IC50 against 7G8 strain; assay type: cell-based; conditions: Plasmodium falciparum, read-out: IC50-7G8
Text: as §1, §2, §3

[4] = system: mitogen-induced marine spleen lymphocytes; assay type: cell-based; conditions: LC50; mouse spleen lymphocytes, 72 hours incubation, then resazurin 24 hours
Experimental: Mouse spleen lymphocytes were isolated from C57B1/6J mice by teasing tissues on a metallic sieve screen. […] Two hundred (200) μl isolated cells were then seeded in separate wells of a 96-well flat-bottom tissue culture plate at a density of 2×10^5 cells per well. […] After 72 hours incubation in a humidified atmosphere at 37° C. and 5% CO2, a solution of resazurin PBS was added to a final concentration 10 μM, and the plates were returned to the incubator for another 24 hours. Resazurin is a substrate which changes color in response to metabolic activity (such as that found in living cells). […] LC50 values were determined from plots of florescence versus drug concentration using non-linear regression by Prism software.

P. berghei = assay: In vivo activity in mice against P. berghei (survival); conditions: second 4× oral dose experiment, dosage equimolar to 30 mg/kg CQ; monitored up to 30 days
P. falciparum strain D6 = conditions: cited from earlier work; note: key: S = sensitive; R = resistant; S/R = intermediate level of resistance
[5] = system: P. falciparum strain FCR3; conditions: cited from earlier work; note: key: S = sensitive; R = resistant; S/R = intermediate level of resistance
P. falciparum strain W2 = conditions: cited from earlier work; note: key: S = sensitive; R = resistant; S/R = intermediate level of resistance
P. falciparum strain Dd2 = conditions: cited from earlier work; note: key: S = sensitive; R = resistant; S/R = intermediate level of resistance
P. falciparum strain 3D7 = conditions: cited from earlier work; note: key: S = sensitive; R = resistant; S/R = intermediate level of resistance
[6] = system: P. falciparum strain TM91C235; conditions: cited from earlier work; note: key: S = sensitive; R = resistant; S/R = intermediate level of resistance
P. falciparum strain 7G8 = conditions: cited from earlier work; note: key: S = sensitive; R = resistant; S/R = intermediate level of resistance

SMILES	pIC50 ([1]; Erythrocyte, D6 (CQ^S) strain in infected red blood cells, 72 hour incubation)	pIC50 ([2]; Erythrocyte, Dd2 (CQ^R) strain in infected red blood cells, 72 hour incubation)	pIC50 ([3]; Erythrocyte, 7G8 (CQ^R) strain in infected red blood cells, 72 hour incubation)	Cytotoxicity [4] [µM]	average survival for the mice (P. berghei) [days]	pIC50 ([1]; D6, Erythrocyte, 72 h)	pIC50 ([2]; DD2, Erythrocyte, 72 h)	pIC50 ([3]; 7G8, Erythrocyte, 72 h)	Drug susceptibility of P. falciparum strain D6 (P. falciparum strain D6)	Drug susceptibility of P. falciparum strain FCR3 [5]	Drug susceptibility of P. falciparum strain W2 (P. falciparum strain W2)	Drug susceptibility of P. falciparum strain Dd2 (P. falciparum strain Dd2)	Drug susceptibility of P. falciparum strain 3D7 (P. falciparum strain 3D7)	Drug susceptibility of P. falciparum strain TM91C235 [6]	Drug susceptibility of P. falciparum strain 7G8 (P. falciparum strain 7G8)
Clc1ccc2c(NCCCN3CCN(c4ccccn4)CC3)ccnc2c1 [7-chloro-N-(3-(4-(pyridin-2-yl)piperazin-1-yl)propyl)quinolin-4-amine]	8.57	8.32	8.02	8.6	20	–	–	–	–	–	–	–	–	–	–
CCN(CC)CCCC(C)Nc1ccnc2cc(Cl)ccc12 (stereo not drawn) [Chloroquine, chloroquine]	–	–	–	–	–	8.16	6.99	6.97	S	R	R	R	S	R	R
